Laboratory results: patent publication US20170217982A1, “Compound isolated from Pseudolysimachion rotundum var. subintegrum, the composition comprising the same for treating allergic disease, inflammatory disease, asthma or chronic obstructive pulmonary disease and the use thereof” (YUNGJIN PHARMACEUTICAL CO., LTD, priority 2014, published 2017)

Tested on: COPD induced mice
Experiment: Anti-COPD effect in cigarette smoke + LPS COPD mouse model
Format: in vivo, C57BL/6N mouse
Conditions: 10 mg/kg p.o.
Protocol: In order to determine the anti-COPD effect of inventive compounds in COPD animal model, following test was performed by using COPD induced mice as disclosed in the literature (Bhaysar, T. et al., J. Chronic Obstr. […]. Dis., 2008, 3, 477-481). Specific pathogen-free male C57BL/6N mouse (about 22-24 g), aged 6 weeks, which were routinely screened serologically for relevant respiratory pathogens, were purchased from Koatech Co. (koatech.co.kr, Seoul, Korea) and bred allowing to access freely to feed (antibiotic free, Samyang Oil & Feed Corp., Korea) and water in breeding room controlling the temperature of 22±2° C., and humidity of 55±15% at the light-dark cycle for 12 hours and acclimated with the experimental environment for 1 week. 2 kinds of test samples, […] ingredient: Roflumilast, 10 mg/kg) were dissolved in 0.5% sodium carboxymethyl cellulose ([…], Sigma-Aldrich, USA) and used as test samples. KS534, and Rolflumilast (ROF 11-492, HETERO, India) were orally administrated to the mice, 1 hour before prior the intratracheal instillation (i.t.). 3R4F Kentuchy Reference Cigarettes ([…], USA) was used as a standard cigarette for generating a cigarette smoke. The cigarette containing 9.4 mg of tar, 11 mg of TPM (total particle matter) and 12 mg of carbon monooxide per piece, was used after harmonizing with the temperature of 22±1° C. and humidity of 60±2% after opening for 48-72 hrs. The exposure of cigarette smoke was performed by using a cigarette smoke generator (DBL Co. Ltd., dhbiolink.com, Korea). The mice were divided into five groups: normal (NC), COPD (cigarette smoke with LPS intranasal instillation), Rof (10 mg/kg of roflumilast, p.o.+cigarette smoke with LPS intranasal instillation), and KS534-15 and 30 (15 mg/kg and 30 mg/kg of KS534, p.o.+cigarette smoke with LPS instillation, respectively). Exposure of cigarette smoke (one puff/min, 35 ml puff volume over 2 s, every 60 s, 8 cigarettes per day) was conducted using a cigarette smoke generator. The mice received 1 h of cigarette smoke exposure in an exposure chamber (50 cm×30 cm×30 cm) for 3 days. Roflumilast and piscroside C were administered to mice by oral lavage 1 h before cigarette smoke exposure for 3 days. LPS was intranasally instilled ([…] dissolved in 50 μL distilled water) under anesthesia 1 h after the final exposure to cigarette smoke. After the end of experiment, the blood, BALF, and pneumonocyte of each rat were isolated and collected to test. After finishing the experiment, rats were anaesthetized with Zoleti150 (3VX9, Virbac, France, p.o) and the blood was delivered through caudal veins. In order to isolate BALF from lung, the bronchus of right lung was ligated with suture and then performed to tracheostomy. IV-use catheter (16 GA, 3S-Cath, Dukwoo, Korea) was put into the bronchus, and both of bronchus and catheter (16 GA, 3S-Cath, Dukwoo, Korea) were fixed with suture. The injector containing 1 ml of DPBS 0.7 (Dubecco's phosphate-buffered saline, Invitrogen, USA) was connected thereto and DPBS was forced to circulate three times to isolate BALF. The right lung ligated with suture was isolated, fixed with 10% neutral formalin solution, and the remaining lung tissue was reserved in refrigerator at -70° C. The isolated BALF was centrifuged for 15 mins at 1500 rpm to prepare cell pellet and the supernatant was reserved in refrigerator at -70° C. for cytokine analysis. The cell pellet was suspended in DPBS, and the cell was attached to a slide glass using by cytospin centrifuge (CS03270047, Hanil, Korea). Diff-Quik staining (ZS1003, Sysmex, Japan) was performed and the cell was observed by optical microscopy (DM1000, Leica, German) to count the number of immunocyte in each test sample. The level of ROS in BALF isolated from the mice was determined by DCF-DA (dihydrodo chloro fluoresce indiacetate, 35854, Sigma-Aldrich, USA) and the final concentration of DCF-DA was adjusted to 20 μm in 200 μL to incubate 30 mins. […]

O=C(Nc1c(Cl)cncc1Cl)c1ccc(OC(F)F)c(OCC2CC2)c1 [Roflumilast, reference compound]
level of proteins in BALF compared with COPD induced group (COPD mice): significant reduction
reduced level of ROS in BALF comparing with COPD induced group (COPD mice): about 22.2%
reduced level of neutrophils in BALF comparing with COPD induced group (COPD mice): about 21.1%
invasion of the inflamed cells in lung tissue (histology) (COPD mice (FIG. 14)): significantly reduced
level of IL-6 in BALF compared with COPD induced group (COPD mice, ELISA): significant reduction
level of TNF-alpha in BALF compared with COPD induced group (COPD mice, ELISA): significant reduction
